# Reference: US20220289732A1, “HETEROCYCLIC WDR5 INHIBITORS AS ANTI-CANCER COMPOUNDS” (NOVARTIS AG, priority 2019, published 2022)
# Assays:
# MV4-11 cells = test: MV4-11 6-day cell growth CTG (CellTiter-Glo) assay; type: cell-based; details: Homo sapiens, MV4-11, 144 h, 6 days, read-out: (c) MLL/WDR5 cell proliferation assay//MLL/WDR5 proliferation MV4:11 Qualified AC50
# How it was run: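 IC50 comes from a dose-response fit of % inhibition relative to DMSO controls, with viable cells measured by CellTiter-Glo luminescence. Compounds were tested over 12 points (1:3, starting at 50 μM final) on MV4-11 cells plated at 300/well and grown 6 days.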
# WDR5 = WDR5 (Homo sapiens, UniProt P61964); test: WDR5 HTRF binding assay; details: read-out: (a) WDR5 HTRF Pep Val v.1[Inhibitor/IC50]Qualified AC50
# How it was run: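 In this HTRF displacement format, biotinylated MLL1 WIN peptide (3762-3773, 20 nM) binds WDR5 (6 nM) in 25 mM Hepes pH 7.5 with 100 mM NaCl, 2 mM DTT and 0.1% BSA for 20 min at rt. Detection used streptavidin-APC/anti-His-Eu for 1 hr. IC50 came from dose-response fits of normalized signal; 15 nM biotin-PEG-His peptide served as counter assay.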
# [1] = biological target: wild type MLL1 four-member complex (MLL1-4C) (Homo sapiens, UniProt P61964); test: MLL1 LC-MS assay (SAH production); type: biochemical; details: read-out: (b) MLL LCMS Peptide Val.v.1 Qualified AC50
# How it was run: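 SAH formation, measured by LC-MS/MS after a TFA quench containing d4-SAH, was normalised to no-compound and no-enzyme controls and fitted to a dose-response curve for IC50. Reactions ran 120 min at rt (pH 8.0 Tris buffer) with final 30 nM MLL1 four-member complex, 2.5 μM SAM and 10 μM biotinylated H3[1-21] peptide, after a 20-min enzyme/SAM-compound preincubation.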
Compound,IC50 (WDR5),AC50 [1],AC50 (MV4-11 cells)
"CNc1nccn1Cc1cc(Br)c2ccn(Cc3ccc(F)c(OC)c3)c(=O)c2c1 [Example 99, 5-bromo-2-(4-fluoro-3-methoxybenzyl)-7-((2-(methylamino)-1H-imidazol-1-yl)methyl)isoquinolin-1(2H)-one]",10 to 1000 nM,10 to 1000 nM,10 to 1000 nM
"CNc1nccn1Cc1cc(-c2cc(CO)cnc2Cl)c2ccn(Cc3cccc(OC)c3)c(=O)c2c1 [Example 100, 5-(2-chloro-5-(hydroxymethyl)pyridin-3-yl)-2-(3-methoxybenzyl)-7-((2-(methylamino)-1H-imidazol-1-yl)methyl)isoquinolin-1(2H)-one]",10 to 1000 nM,10 to 1000 nM,10 to 1000 nM
"CNc1nccn1Cc1cc(-c2cc(CO)cnc2Cl)c2ccn(Cc3ccc(F)c(OC)c3)c(=O)c2c1 [Example 101, 5-(2-chloro-5-(hydroxymethyl)pyridin-3-yl)-2-(4-fluoro-3-methoxybenzyl)-7-((2-(methylamino)-1H-imidazol-1-yl)methyl)isoquinolin-1(2H)-one]",10 to 1000 nM,10 to 1000 nM,10 to 1000 nM
"CNc1nccn1Cc1cc(-c2cc(CO)cnc2Cl)c2ccn([C@@H](C)c3cccc(OC)c3)c(=O)c2c1 [Example 102, (S)-5-(2-chloro-5-(hydroxymethyl)pyridin-3-yl)-2-(1-(3-methoxyphenyl)ethyl)-7-((2-(methylamino)-1H-imidazol-1-yl)methyl)isoquinolin-1(2H)-one]",10 to 1000 nM,10 to 1000 nM,10 to 1000 nM
"CNc1nccn1Cc1cc(-c2cc(CO)cnc2Cl)c2ccn([C@H](C)c3cccc(OC)c3)c(=O)c2c1 [Example 103, (R)-5-(2-chloro-5-(hydroxymethyl)pyridin-3-yl)-2-(1-(3-methoxyphenyl)ethyl)-7-((2-(methylamino)-1H-imidazol-1-yl)methyl)isoquinolin-1(2H)-one]",10 to 1000 nM,10 to 1000 nM,10 to 1000 nM
"CNc1nccn1Cc1cc(-c2cc(CO)cnc2Cl)c2ccn(Cc3ccc(OC)c(F)c3)c(=O)c2c1 [Example 104, 5-(2-chloro-5-(hydroxymethyl)pyridin-3-yl)-2-(3-fluoro-4-methoxybenzyl)-7-((2-(methylamino)-1H-imidazol-1-yl)methyl)isoquinolin-1(2H)-one]",10 to 1000 nM,10 to 1000 nM,10 to 1000 nM
"CNc1nccn1Cc1cc(-c2cc(CO)cnc2Cl)c2ccn(Cc3ccc(OC)cc3)c(=O)c2c1 [Example 105, 5-(2-chloro-5-(hydroxymethyl)pyridin-3-yl)-2-(4-methoxybenzyl)-7-((2-(methylamino)-1H-imidazol-1-yl)methyl)isoquinolin-1(2H)-one]",10 to 1000 nM,10 to 1000 nM,10 to 1000 nM
"CNc1nccn1Cc1cc(-c2cc(C(C)O)cnc2Cl)c2ccn(Cc3ccc(F)c(OC)c3)c(=O)c2c1 (stereo not drawn) [Example 106, 5-(2-chloro-5-(1-hydroxyethyl)pyridin-3-yl)-2-(4-fluoro-3-methoxybenzyl)-7-((2-(methylamino)-1H-imidazol-1-yl)methyl)isoquinolin-1(2H)-one]",10 to 1000 nM,10 to 1000 nM,10 to 1000 nM
"CNc1nccn1Cc1cc(-c2cc(CO)cnc2Cl)c2ccn(Cc3cc4c(C)cccc4[nH]3)c(=O)c2c1 [Example 107, 5-(2-chloro-5-(hydroxymethyl)pyridin-3-yl)-2-((4-methyl-1H-indol-2-yl)methyl)-7-((2-(methylamino)-1H-imidazol-1-yl)methyl)isoquinolin-1(2H)-one]",10 to 1000 nM,10 to 1000 nM,10 to 1000 nM
"CNc1nccn1Cc1cc(-c2cc(CO)cnc2Cl)c2ccn(Cc3cc4ccccc4[nH]3)c(=O)c2c1 [Example 108, 2-((1H-indol-2-yl)methyl)-5-(2-chloro-5-(hydroxymethyl)pyridin-3-yl)-7-((2-(methylamino)-1H-imidazol-1-yl)methyl)isoquinolin-1(2H)-one]",10 to 1000 nM,10 to 1000 nM,10 to 1000 nM
"CCOc1cc([C@H](C)N2CCc3c(cc(CCN(C)CC)cc3-c3cc(CO)cnc3Cl)C2=O)ncc1F [Example 120, (S)-5-(2-chloro-5-(hydroxymethyl)pyridin-3-yl)-2-(1-(4-ethoxy-5-fluoropyridin-2-yl)ethyl)-7-(2-(ethyl(methyl)amino)ethyl)-3,4-dihydroisoquinolin-1(2H)-one]",< 10 nM,10 to 1000 nM,10 to 1000 nM
"CCOc1cc([C@H](C)N2CCc3c(cc(CCN(C)CC)cc3-c3cn(C)nc3C)C2=O)ncc1Cl [Example 121, (S)-2-(1-(5-chloro-4-ethoxypyridin-2-yl)ethyl)-5-(1,3-dimethyl-1H-pyrazol-4-yl)-7-(2-(ethyl(methyl)amino)ethyl)-3,4-dihydroisoquinolin-1(2H)-one]",< 10 nM,10 to 1000 nM,10 to 1000 nM

# Now from value to compound, other results behind:
IC50 (WDR5),AC50 [1],Compound,AC50 (MV4-11 cells)
< 10 nM,10 to 1000 nM,"CNc1nccn1Cc1cc(-c2cc(CO)cnc2Cl)c2ccn(Cc3cccc(OC(F)F)c3)c(=O)c2c1 [Example 98, 5-(2-chloro-5-(hydroxymethyl)pyridin-3-yl)-2-(3-(difluoromethoxy)benzyl)-7-((2-(methylamino)-1H-imidazol-1-yl)methyl)isoquinolin-1(2H)-one]",10 to 1000 nM
< 10 nM,10 to 1000 nM,"CCOc1cc([C@H](C)N2CCc3c(cc(CCN(C)CC)cc3-c3ccc(F)nc3C)C2=O)ncc1C#N [Example 111, (S)-4-ethoxy-6-(1-(7-(2-(ethyl(methyl)amino)ethyl)-5-(6-fluoro-2-methylpyridin-3-yl)-1-oxo-3,4-dihydroisoquinolin-2(1H)-yl)ethyl)nicotinonitrile]",10 to 1000 nM
< 10 nM,10 to 1000 nM,"CCOc1cc(CN2CCc3c(cc(CCN(C)CC)cc3-c3cc(C)cnc3Cl)C2=O)ncc1C#N [Example 112, 6-((5-(2-chloro-5-methylpyridin-3-yl)-7-(2-(ethyl(methyl)amino)ethyl)-1-oxo-3,4-dihydroisoquinolin-2(1H)-yl)methyl)-4-ethoxynicotinonitrile]",10 to 1000 nM
< 10 nM,10 to 1000 nM,"CCN(C)CCc1cc2c(c(-c3cn(C)nc3C)c1)CCN([C@@H](C)c1cc(OC)c(F)cn1)C2=O [Example 113, (S)-5-(1,3-dimethyl-1H-pyrazol-4-yl)-7-(2-(ethyl(methyl)amino)ethyl)-2-(1-(5-fluoro-4-methoxypyridin-2-yl)ethyl)-3,4-dihydroisoquinolin-1(2H)-one]",10 to 1000 nM
< 10 nM,10 to 1000 nM,"CCOc1cc([C@H](C)N2CCc3c(cc(CCN(C)CC)cc3-c3cc(C)cnc3C)C2=O)ncc1C#N [Example 114, (S)-6-(1-(5-(2,5-dimethylpyridin-3-yl)-7-(2-(ethyl(methyl)amino)ethyl)-1-oxo-3,4-dihydroisoquinolin-2(1H)-yl)ethyl)-4-ethoxynicotinonitrile]",10 to 1000 nM
< 10 nM,10 to 1000 nM,"CCOc1cc([C@H](C)N2CCc3c(cc(CCN(C)CC)cc3-c3cn(CCO)nc3C)C2=O)ncc1C#N [Example 115, (S)-4-ethoxy-6-(1-(7-(2-(ethyl(methyl)amino)ethyl)-5-(1-(2-hydroxyethyl)-3-methyl-1H-pyrazol-4-yl)-1-oxo-3,4-dihydroisoquinolin-2(1H)-yl)ethyl)nicotinonitrile]",10 to 1000 nM
< 10 nM,10 to 1000 nM,"CCOc1cc([C@H](C)N2CCc3c(cc(CCN(C)CC)cc3-c3c[nH]nc3C)C2=O)ncc1C#N [Example 116, (S)-4-ethoxy-6-(1-(7-(2-(ethyl(methyl)amino)ethyl)-5-(3-methyl-1H-pyrazol-4-yl)-1-oxo-3,4-dihydroisoquinolin-2(1H)-yl)ethyl)nicotinonitrile]",10 to 1000 nM
< 10 nM,10 to 1000 nM,"CCOc1cc([C@H](C)N2CCc3c(cc(CCN(C)CC)cc3-c3ccnc(F)c3C)C2=O)ncc1C#N [Example 117, (S)-4-ethoxy-6-(1-(7-(2-(ethyl(methyl)amino)ethyl)-5-(2-fluoro-3-methylpyridin-4-yl)-1-oxo-3,4-dihydroisoquinolin-2(1H)-yl)ethyl)nicotinonitrile]",10 to 1000 nM
< 10 nM,10 to 1000 nM,"CCOc1cc([C@H](C)N2CCc3c(cc(CCN(C)CC)cc3-c3cc(C)cnc3Cl)C2=O)ncc1C#N [Example 118, (S)-6-(1-(5-(2-chloro-5-methylpyridin-3-yl)-7-(2-(ethyl(methyl)amino)ethyl)-1-oxo-3,4-dihydroisoquinolin-2(1H)-yl)ethyl)-4-ethoxynicotinonitrile]",10 to 1000 nM
< 10 nM,10 to 1000 nM,"CCOc1cc([C@H](C)N2CCc3c(cc(CCN(C)CC)cc3-c3cccnc3C(F)F)C2=O)ncc1C#N [Example 119, (S)-6-(1-(5-(2-(difluoromethyl)pyridin-3-yl)-7-(2-(ethyl(methyl)amino)ethyl)-1-oxo-3,4-dihydroisoquinolin-2(1H)-yl)ethyl)-4-ethoxynicotinonitrile]",10 to 1000 nM
